± gives the standard deviation of the averaged measurements.
Legend:
Test in all cases: normalised growth rate inhibition (GR value) relative to DMSO control (GR (1 = untreated growth, 0 = cytostasis, <0 = cytotoxic)); higher = less growth inhibition
Details in all cases: 72 h
SKBR3 = system: SKBR3
Method: (§1)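 Breast cancer cell lines (BT-20, Hs 578T, MCF 10A, MCF7, MDA-MB-231, SK-BR-3) were plated in 384-well plates and treated 24 h later with drugs at six concentrations (0.04-10 µM). Viable cells were counted by Hoechst/dead-cell-stain imaging at 0 and 72 h. Counts were normalised to DMSO controls on the same plate to give the relative cell count and the growth-rate inhibition (GR) value; technical plate triplicates were averaged for each biological replicate.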

MCF7 = system: MCF7
Method: as §1

MCF10A = system: MCF10A
Method: as §1

MDAMB231 = system: MDAMB231
Method: as §1

HS578T = system: HS578T
Method: as §1

BT20 = system: BT20
Method: as §1

Row | Compound | normalised growth rate inhibition (SKBR3; 0.04 µM) | normalised growth rate inhibition (SKBR3; 0.12 µM) | normalised growth rate inhibition (SKBR3; 0.37 µM) | normalised growth rate inhibition (SKBR3; 1.11 µM) | normalised growth rate inhibition (SKBR3; 3.33 µM) | normalised growth rate inhibition (SKBR3; 10 µM) | normalised growth rate inhibition (MCF7; 0.04 µM) | normalised growth rate inhibition (MCF7; 0.12 µM) | normalised growth rate inhibition (MCF7; 0.37 µM) | normalised growth rate inhibition (MCF7; 1.11 µM) | normalised growth rate inhibition (MCF7; 3.33 µM) | normalised growth rate inhibition (MCF7; 10 µM) | normalised growth rate inhibition (MCF10A; 0.04 µM) | normalised growth rate inhibition (MCF10A; 0.12 µM) | normalised growth rate inhibition (MCF10A; 0.37 µM) | normalised growth rate inhibition (MCF10A; 1.11 µM) | normalised growth rate inhibition (MCF10A; 3.33 µM) | normalised growth rate inhibition (MCF10A; 10 µM) | normalised growth rate inhibition (MDAMB231; 0.04 µM) | normalised growth rate inhibition (MDAMB231; 0.12 µM) | normalised growth rate inhibition (MDAMB231; 0.37 µM) | normalised growth rate inhibition (MDAMB231; 1.11 µM) | normalised growth rate inhibition (MDAMB231; 3.33 µM) | normalised growth rate inhibition (MDAMB231; 10 µM) | normalised growth rate inhibition (HS578T; 0.04 µM) | normalised growth rate inhibition (HS578T; 0.12 µM) | normalised growth rate inhibition (HS578T; 0.37 µM) | normalised growth rate inhibition (HS578T; 1.11 µM) | normalised growth rate inhibition (HS578T; 3.33 µM) | normalised growth rate inhibition (HS578T; 10 µM) | normalised growth rate inhibition (BT20; 0.04 µM) | normalised growth rate inhibition (BT20; 0.12 µM) | normalised growth rate inhibition (BT20; 0.37 µM) | normalised growth rate inhibition (BT20; 1.11 µM) | normalised growth rate inhibition (BT20; 3.33 µM) | normalised growth rate inhibition (BT20; 10 µM)
1 | CN(C)C/C=C/C(=O)Nc1cc2c(Nc3ccc(F)c(Cl)c3)ncnc2cc1O[C@H]1CCOC1 [afatinib] | -0.137 ± 0.2 | -0.13 ± 0.17 | -0.117 ± 0.16 | -0.0678 ± 0.2 | -0.0514 ± 0.15 | -0.171 ± 0.11 | 0.784 ± 0.14 | 0.81 ± 0.15 | 0.865 ± 0.079 | 0.736 ± 0.11 | 0.603 ± 0.15 | -0.239 ± 0.083 | 0.034 ± 0.14 | 0.0299 ± 0.097 | 0.034 ± 0.07 | 0.0532 ± 0.05 | 0.058 ± 0.067 | 0.0354 ± 0.032 | 0.845 ± 0.14 | 0.873 ± 0.047 | 0.755 ± 0.041 | 0.641 ± 0.09 | 0.537 ± 0.043 | -0.205 ± 0.11 | 0.9498 ± 0.0056 | 0.944 ± 0.032 | 0.944 ± 0.021 | 0.899 ± 0.025 | 0.852 ± 0.059 | -0.152 ± 0.04 | 0.704 ± 0.031 | 0.789 ± 0.017 | 0.814 ± 0.027 | 0.868 ± 0.059 | 0.855 ± 0.035 | 0.0471 ± 0.25
2 | CN1CC[C@H](c2c(O)cc(O)c3c(=O)cc(-c4ccccc4Cl)oc23)[C@H](O)C1 [alvocidib] | 0.102 ± 0.038 | -0.287 ± 0.2 | -0.32 ± 0.26 | -0.367 ± 0.21 | -0.357 ± 0.22 | -0.391 ± 0.21 | -0.0866 ± 0.19 | -0.328 ± 0.037 | -0.335 ± 0.068 | -0.359 ± 0.057 | -0.361 ± 0.077 | -0.364 ± 0.07 | 0.197 ± 0.27 | -0.2 ± 0.16 | -0.288 ± 0.23 | -0.281 ± 0.24 | -0.281 ± 0.25 | -0.263 ± 0.22 | 0.184 ± 0.25 | -0.239 ± 0.12 | -0.273 ± 0.13 | -0.273 ± 0.16 | -0.282 ± 0.14 | -0.287 ± 0.16 | 0.48 ± 0.23 | -0.156 ± 0.1 | -0.206 ± 0.082 | -0.196 ± 0.11 | -0.193 ± 0.098 | -0.188 ± 0.11 | 0.324 ± 0.32 | -0.0878 ± 0.2 | -0.251 ± 0.083 | -0.35 ± 0.19 | -0.339 ± 0.2 | -0.365 ± 0.21
3 | Cc1cc2c(F)c(Oc3ncnn4cc(OC[C@@H](C)O)c(C)c34)ccc2[nH]1 [brivanib] | 0.811 ± 0.14 | 0.798 ± 0.17 | 0.807 ± 0.15 | 0.861 ± 0.11 | 0.85 ± 0.11 | 0.822 ± 0.1 | 0.902 ± 0.093 | 0.864 ± 0.064 | 0.898 ± 0.079 | 0.908 ± 0.062 | 0.949 ± 0.029 | 0.86 ± 0.035 | 0.992 ± 0.017 | 0.977 ± 0.023 | 0.969 ± 0.016 | 0.883 ± 0.043 | 0.74 ± 0.071 | 0.316 ± 0.043 | 0.902 ± 0.11 | 0.892 ± 0.081 | 0.91 ± 0.062 | 0.923 ± 0.062 | 0.895 ± 0.1 | 0.667 ± 0.094 | 0.963 ± 0.016 | 0.952 ± 0.02 | 0.963 ± 0.011 | 0.9364 ± 0.0061 | 0.9281 ± 0.0053 | 0.797 ± 0.055 | 0.949 ± 0.039 | 0.935 ± 0.016 | 0.956 ± 0.012 | 0.928 ± 0.024 | 0.925 ± 0.047 | 0.798 ± 0.03
4 | Nc1cc(C(F)(F)F)c(-c2cc(N3CCOCC3)nc(N3CCOCC3)n2)cn1 [buparlisib] | 0.917 ± 0.09 | 0.651 ± 0.1 | 0.145 ± 0.056 | -0.203 ± 0.16 | -0.281 ± 0.14 | -0.332 ± 0.13 | 0.759 ± 0.25 | 0.475 ± 0.18 | 0.148 ± 0.069 | -0.113 ± 0.032 | -0.188 ± 0.0036 | -0.189 ± 0.021 | 1 ± 0.012 | 0.956 ± 0.044 | 0.857 ± 0.11 | 0.487 ± 0.23 | 0.0221 ± 0.089 | -0.181 ± 0.12 | 1.05 ± 0.063 | 0.978 ± 0.027 | 0.844 ± 0.04 | 0.487 ± 0.062 | 0.0994 ± 0.052 | -0.255 ± 0.12 | 0.955 ± 0.025 | 0.845 ± 0.028 | 0.679 ± 0.039 | 0.142 ± 0.16 | -0.17 ± 0.099 | -0.231 ± 0.091 | 1.01 ± 0.029 | 0.868 ± 0.1 | 0.501 ± 0.11 | 0.0131 ± 0.038 | -0.261 ± 0.11 | -0.346 ± 0.12
5 | C=CC(=O)Nc1cc2c(Nc3ccc(F)c(Cl)c3)ncnc2cc1OCCCN1CCOCC1 [canertinib] | 0.148 ± 0.089 | 0.023 ± 0.12 | -0.0304 ± 0.15 | -0.0844 ± 0.15 | -0.124 ± 0.14 | -0.261 ± 0.12 | 0.9894 ± 0.0058 | 0.884 ± 0.035 | 0.801 ± 0.053 | 0.67 ± 0.062 | 0.505 ± 0.13 | -0.367 ± 0.092 | 0.702 ± 0.24 | 0.498 ± 0.26 | 0.313 ± 0.2 | 0.173 ± 0.1 | 0.105 ± 0.033 | -0.39 ± 0.22 | 1.04 ± 0.029 | 0.965 ± 0.015 | 0.909 ± 0.026 | 0.782 ± 0.034 | 0.572 ± 0.099 | -0.249 ± 0.077 | 1 ± 0.028 | 0.996 ± 0.028 | 0.969 ± 0.019 | 0.944 ± 0.011 | 0.851 ± 0.034 | -0.289 ± 0.13 | 0.896 ± 0.044 | 0.8804 ± 0.0073 | 0.831 ± 0.027 | 0.814 ± 0.045 | 0.71 ± 0.061 | -0.13 ± 0.097
6 | C[C@@H](Oc1cc(-c2cnn(C3CCNCC3)c2)cnc1N)c1c(Cl)ccc(F)c1Cl [crizotinib] | 0.687 ± 0.14 | 0.808 ± 0.096 | 0.753 ± 0.15 | 0.629 ± 0.15 | 0.342 ± 0.14 | -0.181 ± 0.092 | 0.762 ± 0.07 | 0.748 ± 0.078 | 0.618 ± 0.12 | 0.351 ± 0.17 | 0.0468 ± 0.047 | -0.174 ± 0.065 | 0.988 ± 0.021 | 0.964 ± 0.032 | 0.934 ± 0.022 | 0.906 ± 0.015 | 0.833 ± 0.028 | 0.094 ± 0.017 | 0.831 ± 0.13 | 0.885 ± 0.079 | 0.778 ± 0.096 | 0.509 ± 0.2 | 0.175 ± 0.12 | -0.0131 ± 0.13 | 0.976 ± 0.034 | 0.965 ± 0.042 | 0.903 ± 0.014 | 0.781 ± 0.12 | 0.367 ± 0.2 | 0.0436 ± 0.099 | 0.805 ± 0.04 | 0.91 ± 0.024 | 0.823 ± 0.015 | 0.742 ± 0.03 | 0.391 ± 0.17 | -0.0468 ± 0.072
7 | Cc1nc(Nc2ncc(C(=O)Nc3c(C)cccc3Cl)s2)cc(N2CCN(CCO)CC2)n1 [dasatinib] | 0.998 ± 0.06 | 0.937 ± 0.08 | 0.942 ± 0.058 | 0.766 ± 0.064 | 0.398 ± 0.15 | -0.166 ± 0.22 | 0.342 ± 0.32 | 0.0795 ± 0.2 | -0.0261 ± 0.17 | -0.0357 ± 0.15 | -0.0394 ± 0.16 | -0.0825 ± 0.16 | 0.621 ± 0.24 | 0.391 ± 0.23 | 0.196 ± 0.14 | 0.0869 ± 0.091 | -0.0296 ± 0.08 | -0.138 ± 0.061 | 0.159 ± 0.29 | -0.107 ± 0.1 | -0.204 ± 0.032 | -0.233 ± 0.054 | -0.239 ± 0.061 | -0.259 ± 0.12 | 0.394 ± 0.28 | 0.17 ± 0.22 | 0.0194 ± 0.17 | -0.0213 ± 0.16 | -0.0565 ± 0.17 | -0.109 ± 0.15 | 0.622 ± 0.27 | 0.364 ± 0.2 | 0.0964 ± 0.081 | 0.0125 ± 0.077 | -0.085 ± 0.094 | -0.163 ± 0.1
